The record followed here is patent publication US20090076075A1, “QUINOLINE DERIVATIVES” (priority 2006, published 2009).

pIC50: −log10 of the molar value.

The target of one assay is T1, PDGFRβ (Homo sapiens, UniProt P09619).
T1 construct: endogenous in cells; host or cells: MG63 osteosarcoma cells (ATCC)
The assay is described as follows: In vitro phospho-Tyr751 PDGFRβ ELISA assay (Test (b)). The assay is classed as cell-based. The following applies: MG63 osteosarcoma cells stimulated with PDGFBB, read-out: IC50 versus phospho-Tyr751 formation in PDGFRβ. The protocol:
This assay uses a conventional ELISA method to determine the ability of test compounds to inhibit phosphorylation of tyrosine in PDGFRβ.
Aliquots (100 μl) of culture media were placed in the outer wells to minimise edge effects. The cells were incubated overnight at 37° C. with 7.5% CO2 to allow the cells to adhere to the wells.
Aliquots (3 μl) of each compound concentration were added to test medium (300 μl) to create a second dilution range. Aliquots (16 μl) of each resultant compound concentration were added to the cells in each well. “Maximum” control cells received a dilution of DMSO plus test medium only. “Minimum” control cells received a reference PDGFR inhibitor (16 μl). The cells were incubated for 90 minutes at 37° C. with 7.5% CO2.
The resultant cells were stimulated with PDGFBB using the following procedure. A lyophilised powder of PDGFBB, (Sigma-Aldrich; Catalogue No. P4306) was mixed with sterile water to provide a stock solution of 10 μg/ml of PDGFBB. […] Aliquots thereof (44 μl) were added to compound treated cells and to the “Maximum” control cells. The “Minimum” control cells received medium only. The cells were incubated at 37° C. with 7.5% CO2 for 5 minutes. […] The resultant tissue culture plates were shaken for 5 minutes at ambient temperature to ensure full lysis and then frozen at −20° C. until required.
Aliquots (50 μl) were added to each well and the plates were placed at 4° C. for 16 hours. The wells were washed 5 times (1 minute soak each time) with 300 μl per well of PBST. The wells were treated with 50 μl of 3% BSA in PBST at ambient temperature for 1 hour and subsequently washed twice with 300 μl per well of PBST.
The tissue culture plates with frozen cell lysate were allowed to warm to 0° C.
For orientation: An ELISA detects its analyte on a solid surface through an enzyme-linked reagent.

For another assay, the target named is T2, KDR (VEGFR2) (Homo sapiens, UniProt P35968).
T2 construct: phosphorylation of KDR expressed in human umbilical vein endothelial cells (HUVECs); host or cells: HUVEC
In words: In vitro phospho-KDR ELISA assay (Test (c)). The following applies: HUVECs stimulated with VEGF, read-out: IC50 versus phospho-tyrosine formation in KDR. In kind it is cell-based. The method, then:
(c) In Vitro Phospho-KDR ELISA Assay
This assay uses a conventional ELISA method to determine the ability of test compounds to inhibit phosphorylation of tyrosine in KDR (VEGFR2).
The cells were incubated overnight at 37° C. with 7.5% CO2 to allow adherence to the well surface. […] The plates were incubated at 37° C. for 2.5 hours.
Test compounds were prepared as 10 mM stock solutions in DMSO and serially diluted with DMSO as required. […] Aliquots (50 μl) of each resultant compound concentration were added to the cells in each well. […] The cells were incubated for 90 minutes at 37° C. with 7.5% CO2.
The resultant cells were stimulated with VEGF using the following procedure. […] A dilution of this stock solution into ‘serum free medium’ provided a 1000 ng/ml VEGF solution. Aliquots thereof (50 μl) were added to all wells. The cells were incubated at 37° C. with 7.5% CO2 for 5 minutes. […] The resultant tissue culture plates were shaken for 5 minutes at ambient temperature to ensure full lysis before being frozen on dry-ice and stored at −20° C. until required.
The antibody was diluted in PBS to a concentration of 8 μg/ml, aliquots (100 μl) were added to each well and the plates were stored at ambient temperature for 16 hours. The wells were washed 3 times (1 minute soak each time) with 300 μl per well of PBST. The wells were treated with PBS containing 1% filter-sterilised BSA (1% BSA/PBS; 200 μl) at ambient temperature for 1 hour and subsequently washed 3 times with 300 μl per well of PBST.
The tissue culture plates with frozen cell lysate were allowed to warm to 0° C. Aliquots (100 μl) of the HUVEC cell lysate were added and the ELISA plates were agitated at ambient temperature for 3 hours. The wells were washed 3 times with 300 μl per well of PBST.

T2 sequence (P35968 20-1356): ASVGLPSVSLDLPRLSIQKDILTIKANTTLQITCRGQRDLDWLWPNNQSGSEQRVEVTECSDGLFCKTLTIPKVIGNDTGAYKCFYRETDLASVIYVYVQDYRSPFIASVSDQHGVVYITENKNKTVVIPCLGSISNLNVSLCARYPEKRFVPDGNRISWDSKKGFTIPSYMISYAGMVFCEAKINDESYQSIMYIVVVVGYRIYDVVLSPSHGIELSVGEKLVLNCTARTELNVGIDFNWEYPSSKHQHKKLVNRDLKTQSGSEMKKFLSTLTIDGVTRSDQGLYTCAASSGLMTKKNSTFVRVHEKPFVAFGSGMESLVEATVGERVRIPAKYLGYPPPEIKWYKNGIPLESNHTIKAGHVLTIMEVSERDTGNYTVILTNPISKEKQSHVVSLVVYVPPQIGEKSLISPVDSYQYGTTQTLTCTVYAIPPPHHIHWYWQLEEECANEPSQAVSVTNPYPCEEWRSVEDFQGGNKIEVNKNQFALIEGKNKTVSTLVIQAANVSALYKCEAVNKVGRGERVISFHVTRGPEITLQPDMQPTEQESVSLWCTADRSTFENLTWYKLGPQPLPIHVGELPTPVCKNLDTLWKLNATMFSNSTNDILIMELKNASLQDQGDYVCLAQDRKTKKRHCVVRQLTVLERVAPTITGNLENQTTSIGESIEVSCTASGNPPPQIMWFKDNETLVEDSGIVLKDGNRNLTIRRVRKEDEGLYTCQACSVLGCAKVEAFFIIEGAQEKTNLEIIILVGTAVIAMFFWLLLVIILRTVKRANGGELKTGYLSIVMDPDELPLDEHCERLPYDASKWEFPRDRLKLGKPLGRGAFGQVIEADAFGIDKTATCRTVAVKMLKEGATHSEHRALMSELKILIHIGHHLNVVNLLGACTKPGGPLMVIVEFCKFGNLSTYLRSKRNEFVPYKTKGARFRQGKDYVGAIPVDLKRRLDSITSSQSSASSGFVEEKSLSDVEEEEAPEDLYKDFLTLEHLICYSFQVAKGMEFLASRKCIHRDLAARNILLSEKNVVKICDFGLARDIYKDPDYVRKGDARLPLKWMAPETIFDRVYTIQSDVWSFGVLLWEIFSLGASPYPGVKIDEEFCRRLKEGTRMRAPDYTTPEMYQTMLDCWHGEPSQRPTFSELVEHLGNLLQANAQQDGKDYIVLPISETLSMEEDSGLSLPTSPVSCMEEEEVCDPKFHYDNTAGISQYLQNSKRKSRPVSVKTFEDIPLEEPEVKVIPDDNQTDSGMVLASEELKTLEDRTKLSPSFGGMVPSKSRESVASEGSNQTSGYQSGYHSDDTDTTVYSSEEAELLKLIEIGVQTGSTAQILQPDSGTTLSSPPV
T1 sequence (P09619 33-1106): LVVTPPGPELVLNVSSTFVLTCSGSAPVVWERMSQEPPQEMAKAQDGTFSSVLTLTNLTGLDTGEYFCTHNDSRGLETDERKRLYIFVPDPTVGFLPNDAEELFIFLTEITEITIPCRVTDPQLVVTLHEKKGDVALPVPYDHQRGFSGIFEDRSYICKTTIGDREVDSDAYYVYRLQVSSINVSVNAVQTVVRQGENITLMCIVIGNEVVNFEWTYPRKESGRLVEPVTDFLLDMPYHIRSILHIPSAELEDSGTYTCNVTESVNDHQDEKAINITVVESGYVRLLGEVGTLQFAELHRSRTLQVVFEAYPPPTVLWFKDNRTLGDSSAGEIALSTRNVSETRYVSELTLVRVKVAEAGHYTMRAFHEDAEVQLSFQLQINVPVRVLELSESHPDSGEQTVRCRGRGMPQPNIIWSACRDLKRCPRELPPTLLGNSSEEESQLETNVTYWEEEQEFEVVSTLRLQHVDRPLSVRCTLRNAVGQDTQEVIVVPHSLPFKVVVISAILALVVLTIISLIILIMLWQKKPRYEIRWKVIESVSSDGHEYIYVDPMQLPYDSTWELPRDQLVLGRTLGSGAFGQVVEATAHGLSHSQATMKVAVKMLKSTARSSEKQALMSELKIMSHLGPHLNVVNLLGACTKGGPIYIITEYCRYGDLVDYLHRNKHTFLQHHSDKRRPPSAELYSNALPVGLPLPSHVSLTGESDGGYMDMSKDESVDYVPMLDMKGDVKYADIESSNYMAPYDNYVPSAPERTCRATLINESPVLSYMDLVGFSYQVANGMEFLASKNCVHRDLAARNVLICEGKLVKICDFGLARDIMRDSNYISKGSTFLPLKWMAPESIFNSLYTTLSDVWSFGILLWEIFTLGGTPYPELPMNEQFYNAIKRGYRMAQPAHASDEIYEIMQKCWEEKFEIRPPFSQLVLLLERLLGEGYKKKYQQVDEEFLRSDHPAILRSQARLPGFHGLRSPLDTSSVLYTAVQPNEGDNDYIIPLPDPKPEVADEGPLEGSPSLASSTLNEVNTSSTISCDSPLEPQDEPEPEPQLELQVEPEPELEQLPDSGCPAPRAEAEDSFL

For orientation: pIC50 means the IC50 on a negative log10 scale, so that one unit is a factor of ten. With `CCc1cc(NC(=O)Cc2ncc(Oc3ccnc4ccc(F)cc34)cc2OC)no1` [N-(5-ethylisoxazol-3-yl)-2-[5-(6-fluoroquinolin-4-yloxy)-3-methoxypyridin-2-yl]acetamide], the negative logarithm of the IC50 (pIC50) on PDGFRβ is around 8.30; at KDR (VEGFR2), below 5.70. For `CCc1cc(NC(=O)Cc2ccc(Oc3ccnc4cc(OC)c(C#N)cc34)cn2)n[nH]1` [Example 3, N-(5-ethylpyrazol-3-yl)-2-[5-(6-cyano-7-methoxyquinolin-4-yloxy)pyridin-2-yl]acetamide], the negative-log IC50 (pIC50) at PDGFRβ was around 7.52. Regarding `COc1cc2nccc(Oc3cnc(CC(=O)Nc4n[nH]c(C)c4C)c(OC)c3)c2cc1OC` [N-(4,5-dimethylpyrazol-3-yl)-2-[5-(6,7-dimethoxyquinolin-4-yloxy)-3-methoxypyridin-2-yl]acetamide], the pIC50 was around 8.30 at PDGFRβ and below 5.70 at KDR (VEGFR2). Consider `COc1ccc2c(Oc3cnc(CC(=O)Nc4noc(C)c4C)c(OC)c3)ccnc2c1` [N-(4,5-dimethylisoxazol-3-yl)-2-[3-methoxy-5-(7-methoxyquinolin-4-yloxy)pyridin-2-yl]acetamide], for which the pIC50 was around 8.30 at PDGFRβ and below 5.70 on KDR (VEGFR2).
